5 compounds from ChEMBL document CHEMBL1201862, “PubChem BioAssay data set” (2004) can be followed below.

The target of experiment [1] is T1, Apoptotic protease-activating factor 1 (Homo sapiens, UniProt O14727).
T1 sequence (O14727 whole entry): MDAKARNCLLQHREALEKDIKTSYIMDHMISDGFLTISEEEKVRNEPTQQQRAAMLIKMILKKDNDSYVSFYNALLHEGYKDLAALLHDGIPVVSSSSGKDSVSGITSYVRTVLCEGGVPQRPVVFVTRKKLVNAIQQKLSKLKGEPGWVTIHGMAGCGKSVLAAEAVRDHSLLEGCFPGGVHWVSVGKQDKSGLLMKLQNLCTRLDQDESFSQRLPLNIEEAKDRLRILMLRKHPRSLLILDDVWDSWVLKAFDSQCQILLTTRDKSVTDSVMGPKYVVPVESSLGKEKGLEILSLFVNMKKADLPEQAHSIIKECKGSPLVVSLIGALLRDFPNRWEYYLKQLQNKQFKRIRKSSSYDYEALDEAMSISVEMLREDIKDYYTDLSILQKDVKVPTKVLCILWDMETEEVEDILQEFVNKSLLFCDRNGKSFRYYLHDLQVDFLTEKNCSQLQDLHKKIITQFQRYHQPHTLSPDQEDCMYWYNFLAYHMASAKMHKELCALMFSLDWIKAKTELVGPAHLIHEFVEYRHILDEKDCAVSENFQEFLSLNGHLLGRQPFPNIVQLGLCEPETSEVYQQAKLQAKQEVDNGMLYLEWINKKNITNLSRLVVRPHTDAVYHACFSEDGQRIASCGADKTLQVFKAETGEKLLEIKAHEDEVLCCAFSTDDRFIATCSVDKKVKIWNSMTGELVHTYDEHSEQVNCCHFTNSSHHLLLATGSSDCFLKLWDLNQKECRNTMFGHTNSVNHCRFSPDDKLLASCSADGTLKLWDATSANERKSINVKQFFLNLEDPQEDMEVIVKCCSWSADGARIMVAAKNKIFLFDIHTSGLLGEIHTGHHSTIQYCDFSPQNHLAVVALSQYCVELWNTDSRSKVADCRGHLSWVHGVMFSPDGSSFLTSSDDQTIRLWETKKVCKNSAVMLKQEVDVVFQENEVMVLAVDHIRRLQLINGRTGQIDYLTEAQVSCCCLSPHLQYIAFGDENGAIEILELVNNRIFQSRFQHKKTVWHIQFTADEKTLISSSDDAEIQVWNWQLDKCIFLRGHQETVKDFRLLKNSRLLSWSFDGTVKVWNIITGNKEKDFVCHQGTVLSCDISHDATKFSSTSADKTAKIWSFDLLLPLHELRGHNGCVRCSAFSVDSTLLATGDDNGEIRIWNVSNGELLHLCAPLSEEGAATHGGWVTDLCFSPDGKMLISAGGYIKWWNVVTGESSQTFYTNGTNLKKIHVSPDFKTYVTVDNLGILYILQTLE
Briefly: SAR analysis of small molecule inhibitors of Apaf-1 in a Fluorescent assay. As to conditions: read-out: IC50_Mean. It counts as functional.

Experiment [2] has as its target T2, High affinity choline transporter 1 (Homo sapiens, UniProt Q9GZV3).
T2 sequence (Q9GZV3 whole entry): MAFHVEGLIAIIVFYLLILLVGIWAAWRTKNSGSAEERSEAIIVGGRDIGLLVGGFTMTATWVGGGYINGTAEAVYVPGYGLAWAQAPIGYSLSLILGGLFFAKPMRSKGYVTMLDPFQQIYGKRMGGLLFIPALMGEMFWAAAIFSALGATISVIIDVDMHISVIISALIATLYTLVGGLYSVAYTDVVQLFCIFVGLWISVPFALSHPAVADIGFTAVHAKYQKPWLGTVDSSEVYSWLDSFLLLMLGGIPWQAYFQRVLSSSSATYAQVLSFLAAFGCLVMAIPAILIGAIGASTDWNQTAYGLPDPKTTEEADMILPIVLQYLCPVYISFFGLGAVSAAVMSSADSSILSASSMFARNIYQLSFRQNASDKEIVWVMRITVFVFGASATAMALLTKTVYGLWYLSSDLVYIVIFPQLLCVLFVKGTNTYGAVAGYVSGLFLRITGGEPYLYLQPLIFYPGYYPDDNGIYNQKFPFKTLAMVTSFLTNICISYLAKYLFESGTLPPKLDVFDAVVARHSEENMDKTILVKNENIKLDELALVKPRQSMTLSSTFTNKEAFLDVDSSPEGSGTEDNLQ
The experiment in a line: human choline transporter potentiators, potency – cell-based, 10-point CRC, membrane potential dye, dose response (AID 602376). The experiment is classed as functional.

Experiment [3] can be described thus: rise of 4N DNA cells, HeLa – IC50, dose response (AID 1117351). The experiment is classed as functional, cell-based.
In experiment [4] the target is Lymphokine-activated killer T-cell-originated protein kinase (Homo sapiens, UniProt Q96KB5). The experiment is classed as functional.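 Further: value comes from a kinase panel screen in which TOPK was one of the panel members.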
In experiment [5] the target is Cell division cycle 7-related protein kinase (Homo sapiens, UniProt O00311). The experiment is classed as functional.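 Further: value obtained from a kinome-wide kinase panel.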
For experiment [6], the target named is G protein-coupled receptor kinase 5 (Homo sapiens, UniProt P34947). Briefly: Navigating the Kinome. Panel member name: GPRK5. It counts as functional.
Experiment [7] concerns the target MAP kinase-activated protein kinase 3 (Homo sapiens, UniProt Q16644). It counts as functional.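 Further: value comes from a kinome-wide profiling panel in which MAPKAPK3 is one of the panel members.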
Experiment [8] can be described thus: rise of 2N DNA cells, HeLa – IC50, dose response (AID 1117349). The experiment is classed as functional, cell-based.
For experiment [9], the target named is Dual specificity tyrosine-phosphorylation-regulated kinase 3 (Homo sapiens, UniProt O43781). The experiment is classed as functional.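 Further: measured as one member of a broad kinase panel.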
The target in experiment [10] is Eukaryotic elongation factor 2 kinase (Homo sapiens, UniProt O00418). The experiment is classed as functional.
For experiment [11], the target named is Protein kinase C gamma type (Homo sapiens, UniProt P05129). The experiment is classed as functional.
Experiment [12] addresses Dual specificity tyrosine-phosphorylation-regulated kinase 4 (Homo sapiens, UniProt Q9NR20). It counts as functional.
Experiment [13] addresses Testis-specific serine/threonine-protein kinase 2 (Homo sapiens, UniProt Q96PF2). It counts as functional.
Experiment [14] addresses High affinity nerve growth factor receptor (Homo sapiens, UniProt P04629). The experiment is classed as functional.
Experiment [15] has as its target Aurora kinase A (Homo sapiens, UniProt O14965). It counts as functional.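 Further: value from the Navigating the Kinome kinase panel profiling, panel entry STK6.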
Experiment [16] concerns the target Vascular endothelial growth factor receptor 2 (Homo sapiens, UniProt P35968). It counts as functional.
The target of experiment [17] is Aurora kinase B (Homo sapiens, UniProt Q96GD4). The experiment is classed as functional.
A short description of experiment [18]: THP-1 cell cytotoxicity, cytotoxicity control, set 6 (AID 602433). The conditions noted are these: Mycobacterium tuberculosis. It counts as functional.
Experiment [19] can be described thus: viability loss in Vero cells – cell-based, purified and synthesized samples, set 8, cytotoxicity control for M. tuberculosis inhibitor project (AID 602431). The experiment is classed as functional. The conditions noted are these: Mycobacterium tuberculosis.
A short description of experiment [20]: HepG2 cell cytotoxicity, cytotoxicity control, set 6 (AID 602432). It counts as functional. As to conditions: Mycobacterium tuberculosis.

The source made the active and inactive calls.

Sequence of G protein-coupled receptor kinase 5 (P34947 whole entry): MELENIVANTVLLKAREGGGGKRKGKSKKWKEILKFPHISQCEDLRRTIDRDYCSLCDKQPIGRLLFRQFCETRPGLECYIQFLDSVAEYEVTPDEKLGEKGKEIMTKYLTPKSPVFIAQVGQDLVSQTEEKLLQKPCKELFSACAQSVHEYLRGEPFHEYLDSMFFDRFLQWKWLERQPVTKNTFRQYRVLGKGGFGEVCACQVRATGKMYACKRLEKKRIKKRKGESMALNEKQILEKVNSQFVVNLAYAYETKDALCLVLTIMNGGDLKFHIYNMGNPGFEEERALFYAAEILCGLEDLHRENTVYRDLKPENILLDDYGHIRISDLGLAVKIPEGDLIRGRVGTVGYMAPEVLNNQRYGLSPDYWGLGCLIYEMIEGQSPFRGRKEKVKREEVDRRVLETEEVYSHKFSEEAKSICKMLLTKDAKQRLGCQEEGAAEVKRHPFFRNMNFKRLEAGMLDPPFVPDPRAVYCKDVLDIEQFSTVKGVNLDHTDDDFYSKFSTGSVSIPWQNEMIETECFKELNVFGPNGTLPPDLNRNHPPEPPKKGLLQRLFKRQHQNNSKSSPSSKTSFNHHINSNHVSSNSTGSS
Sequence of Lymphokine-activated killer T-cell-originated protein kinase (Q96KB5 whole entry): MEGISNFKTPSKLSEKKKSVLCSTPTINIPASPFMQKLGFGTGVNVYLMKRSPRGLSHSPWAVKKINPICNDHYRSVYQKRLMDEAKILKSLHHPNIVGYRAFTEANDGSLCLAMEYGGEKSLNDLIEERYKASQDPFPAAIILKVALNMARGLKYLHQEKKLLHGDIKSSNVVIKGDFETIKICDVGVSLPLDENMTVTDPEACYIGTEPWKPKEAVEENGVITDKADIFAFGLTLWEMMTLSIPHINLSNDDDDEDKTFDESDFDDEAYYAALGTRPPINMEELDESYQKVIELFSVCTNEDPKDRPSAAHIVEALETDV
Sequence of Cell division cycle 7-related protein kinase (O00311 whole entry): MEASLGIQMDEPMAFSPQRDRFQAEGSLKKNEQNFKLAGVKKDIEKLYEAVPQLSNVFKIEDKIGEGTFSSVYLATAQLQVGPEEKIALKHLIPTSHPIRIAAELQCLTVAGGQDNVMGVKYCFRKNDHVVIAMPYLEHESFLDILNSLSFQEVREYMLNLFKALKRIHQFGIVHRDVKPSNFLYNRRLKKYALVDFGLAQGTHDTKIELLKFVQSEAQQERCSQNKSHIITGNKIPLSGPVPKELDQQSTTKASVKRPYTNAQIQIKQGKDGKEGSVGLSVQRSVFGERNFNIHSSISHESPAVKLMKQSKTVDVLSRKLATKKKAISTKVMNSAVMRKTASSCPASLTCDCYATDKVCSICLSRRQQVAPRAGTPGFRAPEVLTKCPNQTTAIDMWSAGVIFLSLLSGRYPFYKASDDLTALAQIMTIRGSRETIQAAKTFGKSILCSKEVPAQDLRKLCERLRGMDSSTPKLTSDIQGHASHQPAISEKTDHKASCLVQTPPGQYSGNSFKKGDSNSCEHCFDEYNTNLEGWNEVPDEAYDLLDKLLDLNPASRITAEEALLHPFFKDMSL
Sequence of Eukaryotic elongation factor 2 kinase (O00418 whole entry): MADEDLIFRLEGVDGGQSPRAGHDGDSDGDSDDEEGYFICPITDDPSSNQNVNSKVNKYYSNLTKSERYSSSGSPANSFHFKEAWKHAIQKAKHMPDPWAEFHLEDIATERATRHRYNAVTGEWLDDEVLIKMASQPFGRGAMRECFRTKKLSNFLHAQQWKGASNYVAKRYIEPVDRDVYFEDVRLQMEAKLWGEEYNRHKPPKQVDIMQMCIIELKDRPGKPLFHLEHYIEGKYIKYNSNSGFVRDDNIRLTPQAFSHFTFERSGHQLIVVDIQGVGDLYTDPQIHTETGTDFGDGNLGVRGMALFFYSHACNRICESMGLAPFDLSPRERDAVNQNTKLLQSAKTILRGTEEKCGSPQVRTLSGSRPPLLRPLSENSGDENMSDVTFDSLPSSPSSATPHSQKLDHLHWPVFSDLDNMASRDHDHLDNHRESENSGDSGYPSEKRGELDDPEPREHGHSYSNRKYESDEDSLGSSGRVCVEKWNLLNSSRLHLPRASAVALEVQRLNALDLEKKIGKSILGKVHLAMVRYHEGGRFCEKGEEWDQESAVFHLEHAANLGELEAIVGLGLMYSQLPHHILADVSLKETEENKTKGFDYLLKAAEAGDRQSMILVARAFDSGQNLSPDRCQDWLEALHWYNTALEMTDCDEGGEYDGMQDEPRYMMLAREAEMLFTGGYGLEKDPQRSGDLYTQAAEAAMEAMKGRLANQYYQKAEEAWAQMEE
Sequence of Dual specificity tyrosine-phosphorylation-regulated kinase 4 (Q9NR20 whole entry): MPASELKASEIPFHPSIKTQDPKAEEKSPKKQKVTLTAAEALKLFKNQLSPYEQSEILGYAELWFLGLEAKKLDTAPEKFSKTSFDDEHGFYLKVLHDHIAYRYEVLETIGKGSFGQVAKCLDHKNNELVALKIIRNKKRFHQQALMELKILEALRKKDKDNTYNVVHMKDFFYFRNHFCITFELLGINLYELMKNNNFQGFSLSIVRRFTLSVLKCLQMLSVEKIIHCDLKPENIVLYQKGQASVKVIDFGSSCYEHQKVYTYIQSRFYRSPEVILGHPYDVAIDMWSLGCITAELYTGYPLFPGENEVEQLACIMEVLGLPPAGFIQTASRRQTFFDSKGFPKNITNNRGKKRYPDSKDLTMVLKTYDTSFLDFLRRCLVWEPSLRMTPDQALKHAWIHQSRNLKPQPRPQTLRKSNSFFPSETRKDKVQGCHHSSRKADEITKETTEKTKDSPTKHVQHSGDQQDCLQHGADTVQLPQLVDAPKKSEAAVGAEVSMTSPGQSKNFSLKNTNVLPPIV
Sequence of Vascular endothelial growth factor receptor 2 (P35968 whole entry): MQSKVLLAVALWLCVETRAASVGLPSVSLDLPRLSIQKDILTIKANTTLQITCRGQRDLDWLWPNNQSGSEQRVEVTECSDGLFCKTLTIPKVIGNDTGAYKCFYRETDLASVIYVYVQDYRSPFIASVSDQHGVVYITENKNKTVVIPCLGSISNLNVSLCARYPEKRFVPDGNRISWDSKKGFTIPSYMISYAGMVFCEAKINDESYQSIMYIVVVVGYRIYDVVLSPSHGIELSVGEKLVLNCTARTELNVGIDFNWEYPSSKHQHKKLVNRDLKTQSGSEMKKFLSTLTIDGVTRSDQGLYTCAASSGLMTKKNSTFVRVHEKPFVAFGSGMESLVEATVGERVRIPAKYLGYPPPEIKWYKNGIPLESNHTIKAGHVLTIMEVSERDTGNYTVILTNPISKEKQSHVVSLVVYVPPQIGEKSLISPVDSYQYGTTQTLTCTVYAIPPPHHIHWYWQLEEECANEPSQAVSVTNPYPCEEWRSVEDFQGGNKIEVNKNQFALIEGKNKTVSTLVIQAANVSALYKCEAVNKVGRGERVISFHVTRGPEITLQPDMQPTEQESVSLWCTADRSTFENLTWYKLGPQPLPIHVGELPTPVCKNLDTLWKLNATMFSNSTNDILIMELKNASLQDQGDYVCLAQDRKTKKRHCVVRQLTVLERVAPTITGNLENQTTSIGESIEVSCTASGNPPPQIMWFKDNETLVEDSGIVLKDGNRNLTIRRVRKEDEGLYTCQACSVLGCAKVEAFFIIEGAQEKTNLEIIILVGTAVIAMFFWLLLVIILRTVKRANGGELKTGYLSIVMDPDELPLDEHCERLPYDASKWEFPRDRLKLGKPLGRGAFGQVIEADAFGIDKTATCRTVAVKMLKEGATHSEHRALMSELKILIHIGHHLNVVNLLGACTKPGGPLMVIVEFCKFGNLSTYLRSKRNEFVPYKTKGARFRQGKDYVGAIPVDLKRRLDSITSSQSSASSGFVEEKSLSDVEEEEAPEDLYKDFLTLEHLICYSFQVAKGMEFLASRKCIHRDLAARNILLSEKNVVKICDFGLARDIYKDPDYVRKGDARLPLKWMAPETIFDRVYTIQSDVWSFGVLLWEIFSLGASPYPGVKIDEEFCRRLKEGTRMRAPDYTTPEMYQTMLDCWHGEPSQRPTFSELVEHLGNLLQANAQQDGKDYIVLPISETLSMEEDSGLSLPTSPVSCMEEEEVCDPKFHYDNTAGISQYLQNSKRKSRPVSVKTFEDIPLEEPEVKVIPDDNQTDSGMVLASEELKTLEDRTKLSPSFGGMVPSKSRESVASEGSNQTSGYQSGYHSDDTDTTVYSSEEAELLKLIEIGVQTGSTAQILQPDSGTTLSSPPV

With `Cc1ccc(-c2nc3cc(NC(=O)c4cccs4)ccc3[nH]2)o1`, in experiment [1], the IC50 is > 100 µM (inactive).
For `CC(C)C(=O)N1CCN(c2ccccc2NC(=O)c2ccc(C#N)cc2F)CC1`, the EC50 (as a rule, the concentration at which the effect is half-maximal) in [2] was 12.9 µM (active).
Regarding `Cc1nc(Nc2ncc(C(=O)Nc3c(C)cccc3Cl)s2)cc(N2CCN(CCO)CC2)n1` [DASATINIB], the IC50 in [3] and in experiment [8] was > 10 µM (inactive) in each case. The Ki (in general, the equilibrium dissociation constant of an inhibitor or competing ligand from its target) in [4] was > 10 µM (inactive); in experiment [5], > 1.26 µM (inactive); in [6] it was > 3.98 µM (inactive); in [7], > 10 µM (inactive); in experiment [9] it was 1.26 µM (active); in [10] it was > 3.98 µM (inactive). For the same compound, the figures for the Ki in experiment [11], in [12] and in [13] were > 7.94 µM (inactive), > 7.94 µM (inactive) and > 1.58 µM (inactive), respectively.
For `CCS(=O)(=O)c1ccc(-c2ccc(-c3n[nH]c4c3Cc3cc(O)c(OC)cc3-4)cc2)cc1`, the Ki in experiment [14] was 3.98 µM (active); in experiment [15], 794 nM (active); in [16], 1.26 µM (active); in experiment [17] it was 0.794 nM (active).
For `COc1ccc(N2CCN(C(=O)c3ccc(CNC(=O)NCc4ccc(Cl)cc4)cc3)CC2)cc1`, the results for the CC50 in experiment [18], in experiment [19] and in experiment [20] were > 100 µM (inconclusive), 29.4 µM (active) and > 50 µM (active), respectively.
